For data set [1], the system named is myeloid cell lines (HL-60, Kasumi-1, ML-2, MOLM-13, MOLM-16, and THP-1). Kind of data set: Viability and apoptosis in myeloid cell lines. Format: cell-based. An excerpt:
TK216 also had anti-proliferative effects, causes cell cycle arrest, and induces apoptosis in a panel of AML and DLBCL cell lines with deregulated ETS family members. […] In vivo efficacy studies in xenograft models of DLBCL indicated anti-tumor activity consistent with in vitro findings, confirming the utility and efficacy of TK216 in the treatment of AML and DLBCL by targeting the aberrant expression and translocations in the ETS-family of transcription factors, which contribute to the pathogenesis of the disease.

The next data set has as its system TMD-8. Kind of data set: 72 hr CellTiter-Glo, DLBCL cell line. It counts as cell-based. The following applies: Homo sapiens, TMD8.
The subject of a further data set is U2932. Kind of data set: 72 hr CellTiter-Glo, DLBCL cell line. It counts as cell-based. The following applies: Homo sapiens. (In general: Cellular ATP, detected with luciferase, serves as a proxy for viable cell number.)
A further data set deals with DLBCL cell lines. Description: Apoptosis by cleaved-Caspase 3 detection. To be noted: various concentrations, 18 h. Format: cell-based. The procedure:
Cells were treated with various concentrations of TK216 for 18 h and apoptosis was assessed by detection of cleaved-Caspase 3.

A further data set deals with 56 lymphoma cell lines. Kind of data set: MTT proliferation, 56 lymphoma cell lines, 72 h. It counts as cell-based. To be noted: 95% C.I.: 367-506, read-out: median IC50. The procedure:
(§1) 56 lymphoma cell lines [27 diffuse large B cell lymphoma (DLBCL); 10 mantle cell lymphoma; 6 marginal zone lymphoma; 5 anaplastic large T-cell lymphoma; 8 others] were exposed to TK-216 increasing doses for 72 h using a Tecan D300e Digital Dispenser and 384 well plates. Cell proliferation was measured with MTT. In vivo study was done in NOD-SCID mice; treatments were started with approximately sc 60 mm3 tumor volumes. Sensitivity was not affected by the lymphoma cell of origin (B vs T; activated B cell type DLBCL versus germinal center type DLBCL) or MYC and TP53 status. There was a non-statistically significant trend for lower sensitivity in cell lines bearing BCL2 chromosomal translocation (P=0.07, DLBCL only; P=0.06, all cell lines).

For another data set, the system named is A4573 cells. Description: Proliferation of Ewing sarcoma A4573 cell line. Format: cell-based. The following applies: A4573 cells (EWS-FLI1 expressing Ewing sarcoma cell line); read-out: EC50, inhibition of proliferation. The source says: TK216 is a first in class, small molecule that directly binds EWS-FLI1 inhibiting the biological activity of ETS-family transcription factor oncoproteins and is currently under clinical investigation in patients with Ewing sarcoma.

The subject of data set [2] is 6 DLBCL cell lines (TMD8, U2932, HBL1, OCI-LY-18, WSU-DLCL2, DOHH2). Description: Cell cycle analysis and Annexin V staining. It counts as cell-based. The following applies: 24, 48, 72 h. The procedure:
FIGS. 18A and 18B show apoptosis and cell cycle distribution of TK-216 in DLBCL cell lines. FIG. 18A) Induction of apoptosis in DLBCL cell lines exposed to TK-216 (500 nM) for 24, 48 or 72 hrs. In the figures are shown four representative (two ABC and two GCB) results. FIG. 18B) Cell cycle distribution in DLBCL cell lines treated with 500 nM of TK-216 for 24, 48 or 72 hrs. In the figure, two representative (one ABC and one GCB) results are shown. DMSO treatment was used as a control.
as §1

A further data set relates to TMD-8 tumors. Kind of data set: TMD-8 DLBCL-ABC xenograft model in nude mice. Format: in vivo. The procedure:
The anti-tumor activity of TK216 was assessed in nude mice harboring TMD-8 tumors, a DLBCL-ABC xenograft model. TK216 was administered orally as a solution at 100 mg/kg BID for 13 days.

Another data set has as its system WSU-DLCL2. Description: 72 hr CellTiter-Glo, DLBCL cell line. It counts as cell-based. To be noted: Homo sapiens, WSUDLCL2.
Another data set has as its system MOLM-16. Description: 72 hr CellTiter-Glo, AML cell line. It counts as cell-based. To be noted: MOLM16.
Another data set concerns MOLM-13. Kind of data set: 72 hr CellTiter-Glo, AML cell line. It counts as cell-based. The following applies: Homo sapiens.
For another data set, the system named is two MCL cell lines. Description: Combination with lenalidomide in MCL cell lines. Format: cell-based. The procedure: (§2) Cell lines were exposed to YK-4-279 or TK-216, alone or in combination with other compounds, for 72 h using a Tecan D300e Digital Dispenser and 96 well plates. Cell proliferation was measured with MTT. Synergy was determined with the Chou-Talalay combination index. Gene expression profiling (GEP) was performed with the Illumina HumanHT 12 Expression BeadChips. In vivo studies were done in NOD-SCID mice and treatments started with 60 mm3 tumor volumes sc.
Since lenalidomide is active in mantle cell lymphoma (MCL), the synergism of the combination of TK-216 and lenalidomide was confirmed also in two MCL cell lines.

Another data set deals with ML-2. Description: 72 hr CellTiter-Glo, AML cell line. Format: cell-based. The following applies: Homo sapiens.
For a further data set, the system named is TMD8 cells xenografts. Kind of data set: TMD8 ABC-DLBCL xenograft in NOD-SCID mice. It counts as in vivo. To be noted: 100 mg/Kg, BID. On the procedure: NOD-Scid mice subcutaneously inoculated with TMD8 cells (15×10^6) were split in two groups respectively treated with TK-216 (100 mg/kg, BID, po, n=9) and control vehicle (n=10). In each box-plot, the line in the middle of the box represents the median and the box extends from the 25th to the 75th percentile (interquartile range, IQ); the whiskers extend to the upper and lower adjacent values (i.e., ±1.5 IQ).
as §1
The latter synergism could be linked to the previously mentioned negative trend between TK-216 IC50 values and the presence of BCL2 translocation.
as §2

The test system of another data set is HBL-1. Kind of data set: 72 hr CellTiter-Glo, DLBCL cell line. Format: cell-based. To be noted: HBL1.
Another data set has as its system DOHH2. Kind of data set: 72 hr CellTiter-Glo, DLBCL cell line. Format: cell-based. The following applies: Homo sapiens, DOHH-2.
For data set [3], the system named is DLBLC cell lines (TMD8, HBL1, U2932). Description: Dose-effect testing in combination with venetoclax. It counts as cell-based. An excerpt:
In each of FIGS. 13-15, the top curve (×) was for the combination therapy, the middle curve (⊚) was for TK216, and the bottom curve (+) was for venetoclax. FIG. 13 is a dose-effect curve for TK216 in combination with venetoclax in the TMD8 cell line. FIG. 14 is a dose-effect curve for TK216 in combination with venetoclax in the U2932 cell line. FIG. 15 is a dose-effect curve for TK216 in combination with venetoclax in the HLB1 cell line.

Data on one compound can be found in patent publication US11285132B2, “Uses of indolinone compounds” (Oncternal Therapeutics, Inc., priority 2016, dated 2022).

Some results are limits rather than exact numbers.

Broadly, the IC50 is the concentration that inhibits the measured activity by half. Regarding `O=C(CC1(O)C(=O)Nc2c(Cl)ccc(Cl)c21)c1ccc(C2CC2)cc1` (centres unmarked) [TK216, 4,7-Dichloro-3-(2-(4-cyclopropylphenyl)-2-oxoethyl)-3-hydroxyindolin-2-one], in data set [1], the cellular viability result is reported as “decrease in cellular viability”. Also, the apoptosis of cells entry in data set [1] (48 hours) was “induced dose-dependent apoptosis”. In addition, the 50% inhibitory concentration (IC50) in the data set with TMD-8 is 152 nM; in the data set on U2932, 127 nM; in the data set with 56 lymphoma cell lines, 449 nM; in the data set with WSU-DLCL2 it was 897 nM; in the data set on MOLM-16, 129 nM; with MOLM-13, 228 nM. Further, the figures for the IC50 in the data set with ML-2, in the data set on HBL-1 and with DOHH2 were 291 nM, 304 nM and 160 nM, respectively. The “apoptosis (cleaved-Caspase 3)” value with DLBCL cell lines was “induced apoptosis”. Moreover, the EC50 with A4573 cells was below 200 nM. The “cell cycle and apoptosis” value in [2] was “time-dependent apoptosis was preceded by a G2/M arrest”. For the same compound, in the data set on TMD-8 tumors (100 mg/kg BID orally, 13 days, vs vehicle control), the tumor growth inhibition stood at 77%. Moreover, the tolerability result with TMD-8 tumors (daily oral administration, xenograft models of DLBCL) was “well-tolerated”. In addition, the “combination of TK-216 and lenalidomide” value in the data set with two MCL cell lines was “synergism”. Besides, the “reduction in tumor volume at D11” value with TMD8 cells xenografts (D11, P<0.01 vs control group) was “four-times”. Besides, in the data set with TMD8 cells xenografts (n=9), the “tumor growth compared with control group” value is given as “reduction in tumor growth”. Further, in data set [3], the “combination effect with venetoclax, dose-effect” value is “synergistic effect across doses”.
